Values belong to the compound of their own block, whether it stands above or below them.
How the values were obtained:
[1] = target: Myosin light chain kinase 2, skeletal/cardiac muscle (Homo sapiens) (UniProt Q9H1R3); assay: Selectivity interaction (Kinase panel (literature)) EUB0001199aCl MYLK2; conditions: at 1 µM
[2] = target: T1, Serine/threonine-protein kinase D1 (Homo sapiens) (UniProt Q15139); assay: Selectivity interaction (SelectScreen profiling (Invitrogen)) EUB0000607a PRKD1; conditions: at 2 µM
T1 sequence (whole entry): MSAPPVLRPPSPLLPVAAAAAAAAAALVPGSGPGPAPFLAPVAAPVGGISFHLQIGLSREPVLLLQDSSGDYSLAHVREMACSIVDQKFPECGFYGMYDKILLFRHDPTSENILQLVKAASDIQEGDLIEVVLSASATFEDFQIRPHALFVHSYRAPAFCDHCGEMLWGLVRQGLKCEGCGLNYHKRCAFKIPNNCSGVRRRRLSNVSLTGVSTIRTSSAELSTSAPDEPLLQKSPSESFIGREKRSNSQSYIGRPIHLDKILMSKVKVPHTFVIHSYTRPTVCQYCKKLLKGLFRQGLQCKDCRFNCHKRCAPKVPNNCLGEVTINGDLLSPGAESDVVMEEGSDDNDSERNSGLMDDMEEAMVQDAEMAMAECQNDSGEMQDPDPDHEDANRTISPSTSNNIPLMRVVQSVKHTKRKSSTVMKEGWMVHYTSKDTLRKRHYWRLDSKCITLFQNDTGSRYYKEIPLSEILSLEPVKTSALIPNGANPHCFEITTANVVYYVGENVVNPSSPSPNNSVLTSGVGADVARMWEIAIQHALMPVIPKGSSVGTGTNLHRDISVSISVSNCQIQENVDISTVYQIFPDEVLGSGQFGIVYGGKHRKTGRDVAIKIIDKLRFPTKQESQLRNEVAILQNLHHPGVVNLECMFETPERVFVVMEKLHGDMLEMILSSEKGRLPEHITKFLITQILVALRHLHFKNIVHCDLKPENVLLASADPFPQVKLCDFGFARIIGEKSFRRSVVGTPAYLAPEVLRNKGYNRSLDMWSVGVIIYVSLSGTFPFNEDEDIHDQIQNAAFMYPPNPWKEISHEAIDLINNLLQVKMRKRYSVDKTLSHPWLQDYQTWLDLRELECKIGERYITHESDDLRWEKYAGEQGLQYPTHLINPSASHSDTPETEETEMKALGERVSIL

[3] = target: Macrophage colony-stimulating factor 1 receptor (Homo sapiens) (UniProt P07333); assay: Selectivity interaction (KinomeScan (DiscoverX)) EUB0001619a CSF1R; conditions: at 1 µM
Chain of Macrophage colony-stimulating factor 1 receptor (Homo sapiens) (P07333 whole entry): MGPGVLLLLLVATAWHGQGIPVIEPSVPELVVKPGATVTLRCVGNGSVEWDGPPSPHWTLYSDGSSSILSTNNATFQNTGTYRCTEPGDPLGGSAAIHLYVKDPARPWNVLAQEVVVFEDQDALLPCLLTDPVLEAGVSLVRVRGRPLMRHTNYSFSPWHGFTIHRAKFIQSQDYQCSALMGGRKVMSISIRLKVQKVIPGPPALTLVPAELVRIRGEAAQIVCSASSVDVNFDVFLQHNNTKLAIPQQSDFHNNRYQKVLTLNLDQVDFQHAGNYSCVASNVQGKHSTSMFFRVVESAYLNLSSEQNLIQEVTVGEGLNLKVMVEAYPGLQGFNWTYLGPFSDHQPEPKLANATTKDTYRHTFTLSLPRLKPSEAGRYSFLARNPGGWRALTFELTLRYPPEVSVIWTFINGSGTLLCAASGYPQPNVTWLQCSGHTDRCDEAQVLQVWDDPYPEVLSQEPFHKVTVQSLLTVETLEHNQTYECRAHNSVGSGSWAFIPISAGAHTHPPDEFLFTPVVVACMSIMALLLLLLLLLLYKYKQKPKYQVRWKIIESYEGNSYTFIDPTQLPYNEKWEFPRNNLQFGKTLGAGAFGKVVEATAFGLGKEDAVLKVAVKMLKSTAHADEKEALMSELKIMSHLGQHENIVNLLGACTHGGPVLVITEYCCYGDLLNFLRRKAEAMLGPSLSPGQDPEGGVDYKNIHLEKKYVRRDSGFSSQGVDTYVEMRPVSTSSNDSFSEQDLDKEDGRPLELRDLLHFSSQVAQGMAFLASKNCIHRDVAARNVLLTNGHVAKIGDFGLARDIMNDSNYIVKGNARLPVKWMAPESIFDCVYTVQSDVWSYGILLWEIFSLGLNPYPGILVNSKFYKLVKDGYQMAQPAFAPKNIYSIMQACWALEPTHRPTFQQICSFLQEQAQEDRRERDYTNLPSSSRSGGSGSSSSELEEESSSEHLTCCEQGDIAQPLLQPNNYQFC

[4] = target: Tyrosine-protein kinase JAK2 (Homo sapiens, UniProt O60674); assay: Selectivity interaction (Antiproliferative activity against Tel-kinase transformed Ba/F3 cell line) EUB0000045b JAK2; assay type: cell-based; conditions: BaF3
Chain of Tyrosine-protein kinase JAK2 (O60674 whole entry): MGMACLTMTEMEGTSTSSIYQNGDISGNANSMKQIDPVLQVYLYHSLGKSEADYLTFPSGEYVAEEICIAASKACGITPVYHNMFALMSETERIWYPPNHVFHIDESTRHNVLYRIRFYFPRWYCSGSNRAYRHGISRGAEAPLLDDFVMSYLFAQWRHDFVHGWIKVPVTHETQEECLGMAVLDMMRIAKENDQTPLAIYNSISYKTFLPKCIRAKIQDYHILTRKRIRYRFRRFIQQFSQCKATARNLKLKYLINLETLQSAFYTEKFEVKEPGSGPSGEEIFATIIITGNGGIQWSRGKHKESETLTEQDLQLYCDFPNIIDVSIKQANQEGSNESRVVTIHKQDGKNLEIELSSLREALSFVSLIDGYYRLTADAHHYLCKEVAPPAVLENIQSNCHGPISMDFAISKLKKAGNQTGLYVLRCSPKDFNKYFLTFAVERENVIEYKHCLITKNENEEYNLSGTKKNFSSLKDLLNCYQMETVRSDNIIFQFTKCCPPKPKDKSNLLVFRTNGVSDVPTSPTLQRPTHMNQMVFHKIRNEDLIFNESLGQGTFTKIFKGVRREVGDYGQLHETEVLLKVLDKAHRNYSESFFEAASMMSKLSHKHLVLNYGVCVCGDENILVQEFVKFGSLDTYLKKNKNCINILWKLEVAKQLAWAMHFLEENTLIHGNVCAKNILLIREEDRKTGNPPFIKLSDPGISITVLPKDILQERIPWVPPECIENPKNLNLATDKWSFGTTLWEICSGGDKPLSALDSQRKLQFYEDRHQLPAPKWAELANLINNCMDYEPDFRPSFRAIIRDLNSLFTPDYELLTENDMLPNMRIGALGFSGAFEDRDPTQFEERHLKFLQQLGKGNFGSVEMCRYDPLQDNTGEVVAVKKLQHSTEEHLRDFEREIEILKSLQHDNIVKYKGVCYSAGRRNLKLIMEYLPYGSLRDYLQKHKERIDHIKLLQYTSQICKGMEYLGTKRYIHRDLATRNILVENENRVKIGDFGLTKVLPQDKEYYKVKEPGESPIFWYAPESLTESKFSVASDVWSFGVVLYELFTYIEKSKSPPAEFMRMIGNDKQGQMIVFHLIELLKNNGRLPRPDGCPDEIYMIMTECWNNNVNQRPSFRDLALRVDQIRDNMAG

[5] = target: T2, Phosphatidylinositol 5-phosphate 4-kinase type-2 beta (Homo sapiens) (UniProt P78356); assay: Selectivity interaction (ActivX KiNativ screen (kinase selectivity in THP-1 cell lysates)) EUB0000639a PIP4K2B; assay type: subcellular; conditions: lysate
T2 sequence (whole entry): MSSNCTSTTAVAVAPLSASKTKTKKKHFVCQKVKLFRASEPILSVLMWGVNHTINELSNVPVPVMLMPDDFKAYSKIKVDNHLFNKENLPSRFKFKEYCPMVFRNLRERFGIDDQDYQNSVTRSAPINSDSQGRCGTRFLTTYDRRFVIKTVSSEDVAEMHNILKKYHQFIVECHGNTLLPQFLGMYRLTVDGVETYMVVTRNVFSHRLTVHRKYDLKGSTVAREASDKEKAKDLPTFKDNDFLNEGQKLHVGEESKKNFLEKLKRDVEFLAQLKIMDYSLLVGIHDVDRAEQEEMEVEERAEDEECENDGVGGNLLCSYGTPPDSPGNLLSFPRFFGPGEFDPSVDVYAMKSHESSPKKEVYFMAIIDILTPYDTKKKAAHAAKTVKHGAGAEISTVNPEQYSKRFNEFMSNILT

[6] = target: Focal adhesion kinase 1 (Homo sapiens, UniProt Q05397); assay: Selectivity interaction (KinomeScan (DiscoverX)) EUB0001049a PTK2; conditions: at 1 µM
[7] = target: Cyclin-dependent kinase 13 (Homo sapiens, UniProt Q14004); assay: Selectivity interaction (KinomeScan (DiscoverX)) EUB0000666a CDK13; conditions: at 10 µM
Chain of Cyclin-dependent kinase 13 (Q14004 whole entry, looked up): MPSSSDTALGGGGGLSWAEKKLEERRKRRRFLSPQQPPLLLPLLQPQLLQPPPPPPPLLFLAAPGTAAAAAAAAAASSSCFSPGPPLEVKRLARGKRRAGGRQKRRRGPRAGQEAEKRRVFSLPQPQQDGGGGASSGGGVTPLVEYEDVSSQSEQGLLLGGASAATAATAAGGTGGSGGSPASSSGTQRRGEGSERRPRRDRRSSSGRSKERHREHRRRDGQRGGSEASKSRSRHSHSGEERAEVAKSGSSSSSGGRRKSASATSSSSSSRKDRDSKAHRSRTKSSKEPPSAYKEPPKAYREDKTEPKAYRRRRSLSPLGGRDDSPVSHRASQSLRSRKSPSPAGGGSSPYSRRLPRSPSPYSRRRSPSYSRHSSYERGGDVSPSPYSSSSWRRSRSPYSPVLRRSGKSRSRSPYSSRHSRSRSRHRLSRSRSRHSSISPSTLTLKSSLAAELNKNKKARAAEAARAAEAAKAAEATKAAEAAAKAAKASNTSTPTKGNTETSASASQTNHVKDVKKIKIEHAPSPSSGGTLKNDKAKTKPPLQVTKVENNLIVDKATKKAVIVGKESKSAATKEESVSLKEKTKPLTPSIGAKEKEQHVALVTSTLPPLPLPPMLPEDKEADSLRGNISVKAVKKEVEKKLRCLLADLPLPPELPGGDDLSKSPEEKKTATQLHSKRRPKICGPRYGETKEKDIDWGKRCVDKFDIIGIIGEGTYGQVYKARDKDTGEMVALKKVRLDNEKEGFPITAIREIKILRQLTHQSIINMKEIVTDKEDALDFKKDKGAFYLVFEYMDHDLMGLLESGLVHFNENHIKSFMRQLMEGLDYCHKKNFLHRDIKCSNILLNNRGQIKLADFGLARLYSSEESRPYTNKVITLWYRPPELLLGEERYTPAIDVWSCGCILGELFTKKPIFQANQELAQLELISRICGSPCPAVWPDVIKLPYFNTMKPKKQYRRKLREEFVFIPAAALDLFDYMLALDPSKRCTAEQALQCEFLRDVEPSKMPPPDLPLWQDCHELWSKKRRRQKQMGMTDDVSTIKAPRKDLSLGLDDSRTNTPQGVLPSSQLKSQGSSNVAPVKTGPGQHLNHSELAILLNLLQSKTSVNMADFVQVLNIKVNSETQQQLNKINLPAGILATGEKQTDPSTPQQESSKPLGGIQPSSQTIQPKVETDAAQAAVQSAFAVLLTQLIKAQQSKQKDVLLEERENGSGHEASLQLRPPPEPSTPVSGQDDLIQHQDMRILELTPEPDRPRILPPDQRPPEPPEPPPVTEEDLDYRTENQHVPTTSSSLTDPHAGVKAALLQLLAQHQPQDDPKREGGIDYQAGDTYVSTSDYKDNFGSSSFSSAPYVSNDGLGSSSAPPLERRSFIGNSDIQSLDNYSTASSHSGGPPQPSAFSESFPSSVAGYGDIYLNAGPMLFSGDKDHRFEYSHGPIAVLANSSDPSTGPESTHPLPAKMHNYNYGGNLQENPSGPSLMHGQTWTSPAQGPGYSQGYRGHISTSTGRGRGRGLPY

[8] = target: T3, Cyclin-dependent kinase 11A (Homo sapiens) (UniProt Q9UQ88); assay: Selectivity interaction (KinomeScan (DiscoverX)) EUB0000092b CDK11A; conditions: at 10 µM
T3 sequence (whole entry): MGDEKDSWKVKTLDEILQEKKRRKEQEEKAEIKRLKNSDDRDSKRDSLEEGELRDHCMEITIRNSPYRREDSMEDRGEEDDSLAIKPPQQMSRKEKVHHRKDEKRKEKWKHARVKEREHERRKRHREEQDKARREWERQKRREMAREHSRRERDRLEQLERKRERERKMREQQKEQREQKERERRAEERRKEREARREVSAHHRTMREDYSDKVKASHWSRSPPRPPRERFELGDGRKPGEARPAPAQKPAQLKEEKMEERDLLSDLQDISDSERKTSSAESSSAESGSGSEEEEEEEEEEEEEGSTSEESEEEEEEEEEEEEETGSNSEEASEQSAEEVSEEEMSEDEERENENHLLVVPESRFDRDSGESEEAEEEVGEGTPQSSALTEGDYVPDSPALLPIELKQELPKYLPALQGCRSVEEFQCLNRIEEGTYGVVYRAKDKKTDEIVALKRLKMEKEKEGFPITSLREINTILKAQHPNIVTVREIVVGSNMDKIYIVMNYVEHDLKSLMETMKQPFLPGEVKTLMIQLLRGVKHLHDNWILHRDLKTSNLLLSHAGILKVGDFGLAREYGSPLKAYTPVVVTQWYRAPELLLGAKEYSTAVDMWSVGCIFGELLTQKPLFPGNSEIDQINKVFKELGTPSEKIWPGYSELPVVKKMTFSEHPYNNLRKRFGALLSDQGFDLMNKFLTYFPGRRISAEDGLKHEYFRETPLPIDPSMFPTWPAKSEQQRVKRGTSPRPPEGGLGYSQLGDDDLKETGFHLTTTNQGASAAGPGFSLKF

Chain of Myosin light chain kinase 2, skeletal/cardiac muscle (Homo sapiens) (Q9H1R3 whole entry): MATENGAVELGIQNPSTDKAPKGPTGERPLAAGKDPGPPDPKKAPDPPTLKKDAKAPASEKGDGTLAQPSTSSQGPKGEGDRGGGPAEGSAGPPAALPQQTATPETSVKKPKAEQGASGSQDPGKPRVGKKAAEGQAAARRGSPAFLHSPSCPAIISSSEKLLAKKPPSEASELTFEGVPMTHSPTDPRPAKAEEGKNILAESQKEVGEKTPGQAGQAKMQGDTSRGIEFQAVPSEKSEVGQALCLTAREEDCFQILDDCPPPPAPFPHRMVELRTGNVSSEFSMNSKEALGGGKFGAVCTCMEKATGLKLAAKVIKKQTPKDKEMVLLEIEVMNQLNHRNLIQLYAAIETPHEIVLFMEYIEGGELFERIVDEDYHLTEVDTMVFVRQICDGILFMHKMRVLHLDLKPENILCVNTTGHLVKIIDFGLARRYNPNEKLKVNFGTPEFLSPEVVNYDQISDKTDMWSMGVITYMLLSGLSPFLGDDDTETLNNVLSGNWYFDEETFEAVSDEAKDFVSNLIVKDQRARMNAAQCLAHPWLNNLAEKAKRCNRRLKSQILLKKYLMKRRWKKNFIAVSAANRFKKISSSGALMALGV

- % of inhibition [1]: 5%
SMILES: CN1Cc2nccc(-c3cn(C)nc3-c3ccc(F)cc3)c2C1=O

SMILES: CNC(=O)Nc1ccc(-c2nc(N3CC4CCC(C3)O4)c3cnn(C4CCC5(CC4)OCCO5)c3n2)cc1
- % of inhibition [2]: 0%

SMILES: N#Cc1cccc(-c2c[nH]c3ncnc(N4CCOCC4)c23)c1
- % of control [3]: 87%

SMILES: C=CC(=O)Nc1cc(-n2c(=O)ccc3cnc4ccc(-c5ccc(NS(C)(=O)=O)cc5)cc4c32)ccc1C
- GIC50 [4]: 5.83 µM

- % of inhibition ([5]; at 0.01 µM): 11.7%
- % of inhibition ([5]; at 0.04 µM): -9.5%
- % of inhibition ([5]; at 0.2 µM): -6.6%
- % of inhibition ([5]; at 1 µM): 4%
- % of inhibition ([5]; at 5 µM): 0.1%
SMILES: CC[C@@H]1[C@H](F)C(=O)N[C@@H]1COc1nccc2cc(C(N)=O)c(OC)cc12 [ZIMLOVISERTIB]

SMILES: COc1cc(Nc2nc(C)cc(-c3cnn4nc(OC)ccc34)n2)cc(C(F)(F)F)c1
- % of control [6]: 86%

SMILES: O=C(NOC[C@H](O)CO)c1ccc(F)c(F)c1Nc1ccc(I)cc1F
- % of control [7]: 84%

SMILES: CCC(=O)N1CCN(c2ccc(-n3c(=O)ccc4cnc5ccc(-c6cnc7ccccc7c6)cc5c43)cc2C(F)(F)F)CC1
- % of control [8]: 1.2%

Source: ChEMBL document CHEMBL5465560, “Selectivity Literature for EUbOPEN Chemogenomic Library” (2024)
